Test results taken from patent US20260042764A1, “COMPOSITIONS AND METHODS FOR INHIBITION OF KRAS” (TheRas, Inc., priority 2022, published 2026).

Key:
[1] = target: T1, Avi-KRAS G12R (1-169) GppNHp/RAF1 RBD-3xFLAG (52-151) (Homo sapiens, UniProt P01116, G12R); test: Raf1-KRAS G12R-GppNHP disruption HTRF assay (Biological Example 1); assay type: binding; details: KRAS G12R, GppNHp-loaded; Table 11
T1 construct: Avi-KRAS G12R (1-169)
Method: (§1) A protein:protein interaction (PPI) Homogeneous Time Resolved Fluorescence (HTRF) assay was used to determine the effectiveness of compounds of the present disclosure in disrupting KRAS protein and effector RAF1 binding.
(§2) The assay buffer included: 50 mM Tris pH 7.5, 100 mM NaCl, 5 mM MgCl2, 0.1% BSA, 0.01% Tween, and 10% DMSO. The bead buffer included: 50 mM Tris pH 7.5, and 0.01% Tween 20. Assay volume of 20 μL was used in a 384 well plate-low volume format.
(§3) The HTRF assay employed the following protocol:
(§4) Protein mix was prepared in assay buffer, and dispensed on plates, 10 μL per well, then incubated for 1 h at room temperature, with 700 rpm shaking, Reagents mix was prepared and dispensed on plates, 10 μL per well, then incubated for 1 h at room temperature, with 700 rpm shaking.
(§5) Data was reported as percentage of activity, with DMSO as 100%. Data was plotted and analyzed using Prism 8.

GP2d cells (KRAS G12D) = test: Cell-based pERK HTRF assay in GP2d cell (Biological Example 2); details: GP2d, GP2d (KRAS G12D) cells, pERK HTRF
Method: A pERK assay (Perkin Elmer) was used to determine the effectiveness of compounds in disrupting KRAS G12D protein/effector signaling in cells.
On Day 1, cells (GP2d) were seeded into 96-well plates at 3×10^4 cells/well in 80 μL complete growth media (DMEM, 10% FBS).
On Day 2, cells were treated with compounds at 0.25% DMSO. The source plate was created with compounds diluted in media at 5-fold the final assay concentration. The compounds were run in a 9-point concentration curve starting at 1 μM or in a 9-point concentration curve starting at 100 nM, with a half-log dilution between concentrations. Twenty μL was transferred onto the cell plates (final volume in wells was 100 μL). Plates were harvested after 60 min incubation by aspirating media and adding kit-supplied 1x supplemented lysis buffer to all wells (50 μL per well). Plates were then placed on a plate shaker and incubated at 850 rpm for an additional 30 min.
Antibody mixture solution was prepared by diluting aliquoted d2 and Eu Cryptate antibodies 1:20 in kit supplied detection buffer, and mixing the diluted antibodies solutions (1:1 v:v).
Samples were homogenized by pipetting up and down and then transferred (16 μL of cell lysates) from the 96-well cell culture plate to two wells of the HTRF 384-well detection plate containing the antibody solution. Plates were centrifuged (524 g for 1 min) and allowed to incubate between 4 and 24 h at room temperature. Maximum signal is reached after 4 h incubation time and remains stable over a period of 24 hours. Therefore, readings can be made between 4 and 24 h of incubation. Plates were centrifuged again (524 g for Imin), then analyzed on the EnVision plate reader using the following settings: Excitation 320 nm, Bandwidth 75 nm; Emission 615 nm, Bandwidth 85 nm; Gain 100%; Flashes 100; Lag 60 μs.

[2] = target: T2, Avi-KRAS G12V (1-169) GppNHp/RAF1 RBD-3xFLAG (52-151) (Homo sapiens, UniProt P01116, G12V); test: Raf1-KRAS G12V-GppNHP disruption HTRF assay (Biological Example 1); assay type: binding; details: KRAS G12V, GppNHp-loaded; Table 11
T2 construct: Avi-KRAS G12V (1-169)
Method: as §1, §2, §3, §4, §5

[3] = target: T3, Avi-KRAS G12D (1-169) GppNHp/RAF1 RBD-3xFLAG (52-151) (Homo sapiens, UniProt P01116, G12D); test: Raf1-KRAS G12D-GppNHP disruption HTRF assay (Biological Example 1); assay type: binding; details: KRAS G12D, GppNHp-loaded; Table 11
T3 construct: Avi-KRAS G12D (1-169)
Method: as §1, §2, §3, §4, §5

[4] = target: T4, Avi-KRAS WT (1-169) GppNHp/RAF1 RBD-3xFLAG (52-151) (Homo sapiens, UniProt P01116); test: Raf1-KRAS WT-GppNHP disruption HTRF assay (Biological Example 1); assay type: binding; details: KRAS WT, GppNHp-loaded; Table 11
T4 construct: Avi-KRAS WT (1-169)
Method: as §1, §2, §3, §4, §5

T4 sequence (P01116 1-169 isoform P01116-2): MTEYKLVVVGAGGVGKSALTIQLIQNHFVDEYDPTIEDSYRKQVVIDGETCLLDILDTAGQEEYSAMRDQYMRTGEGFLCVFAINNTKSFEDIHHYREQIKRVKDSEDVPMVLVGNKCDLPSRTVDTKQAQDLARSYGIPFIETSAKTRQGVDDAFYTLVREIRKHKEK
T3 sequence (P01116 1-169 isoform P01116-2 G12D): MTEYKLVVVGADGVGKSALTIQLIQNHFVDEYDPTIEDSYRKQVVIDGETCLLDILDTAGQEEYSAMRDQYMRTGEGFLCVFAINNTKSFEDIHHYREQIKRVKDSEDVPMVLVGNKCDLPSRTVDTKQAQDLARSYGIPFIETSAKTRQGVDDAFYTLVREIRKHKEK
T1 sequence (P01116 1-169 isoform P01116-2 G12R): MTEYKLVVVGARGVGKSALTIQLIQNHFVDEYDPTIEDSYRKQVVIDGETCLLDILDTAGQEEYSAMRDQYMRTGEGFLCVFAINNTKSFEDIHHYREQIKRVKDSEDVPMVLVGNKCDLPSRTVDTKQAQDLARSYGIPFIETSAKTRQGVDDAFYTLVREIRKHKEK
T2 sequence (P01116 1-169 isoform P01116-2 G12V): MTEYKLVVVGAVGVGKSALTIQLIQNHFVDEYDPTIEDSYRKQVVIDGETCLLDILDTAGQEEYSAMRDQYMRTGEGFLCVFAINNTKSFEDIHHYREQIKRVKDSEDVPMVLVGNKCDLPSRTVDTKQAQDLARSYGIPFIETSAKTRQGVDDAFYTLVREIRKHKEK

| Structure (SMILES) | IC50 [1] [nM] | IC50 (GP2d cells (KRAS G12D)) [nM] | IC50 [2] [nM] | IC50 [3] [nM] | IC50 [4] [nM] |
| --- | --- | --- | --- | --- | --- |
| CCCN(C)c1nc(OC[C@@]23CCCN2C[C@H](F)C3)nc2c(F)c(-c3ccc(F)c4sc(N)c(C#N)c34)c(C(F)(F)F)cc12 [Compound 120] | 100 to 1000 | < 100 | 100 to 1000 | 100 to 1000 | 100 to 1000 |
| CN(c1nc(OC[C@@H]2CC3(CC3)CN2C)nc2c(F)c(-c3ccc(F)c4sc(N)c(C#N)c34)c(C(F)(F)F)cc12)C1CC(O)C1 (some centres unmarked) [Compound 41] | 100 to 1000 | < 100 | 100 to 1000 | 100 to 1000 | 100 to 1000 |
| CN(c1nc(OC[C@@]23CCCN2C[C@H](F)C3)nc2cc(-c3ccc(F)c4sc(N)c(C#N)c34)c(C(F)(F)F)cc12)[C@H]1C[C@@H](O)C1 [Compound 33] | 100 to 1000 | 100 to 1000 | 100 to 1000 | 100 to 1000 | 100 to 1000 |
| CCN(c1nc(OC[C@@]23CCCN2C[C@H](F)C3)nc2c(F)c(-c3ccc(F)c4sc(N)c(C#N)c34)c(C(F)(F)F)cc12)C1CC1 [Compound 155] | 100 to 1000 | < 100 | 1000 to 10000 | 100 to 1000 | 1000 to 10000 |
| CN(c1nc(OC[C@@]23CCCN2C[C@H](F)C3)nc2cc(-c3ccc(F)c4sc(N)c(C#N)c34)c(C#N)cc12)[C@H]1C[C@@H](O)C1 [Compound 29] | 1000 to 10000 | 100 to 1000 | 1000 to 10000 | 1000 to 10000 | 1000 to 10000 |
| Nc1nc2c(-c3c(C(F)(F)F)cc4c(N5CCC(CO)CC5)nc(OCC56CCCN5CCC6)nc4c3F)ccc(F)c2s1 [Compound 43] | 1000 to 10000 |  | 1000 to 10000 | 100 to 1000 | 100 to 1000 |
| CN(c1nc(OCC2(CN3CCOCC3)CC2)nc2c(F)c(-c3ccc(F)c4sc(N)nc34)c(C(F)(F)F)cc12)[C@H]1C[C@@H](O)C1 (atropisomer, axis not shown) [Compound 16] | 1000 to 10000 |  | 1000 to 10000 | 1000 to 10000 | 1000 to 10000 |
| Nc1nc2c(-c3c(C(F)(F)F)cc4c(NC[C@@H]5CC[C@H](CO)C5)nc(OCC56CCCN5CCC6)nc4c3F)ccc(F)c2s1 [Compound 68] | > 10000 |  | 1000 to 10000 | > 10000 | > 10000 |
| Nc1nc2c(-c3c(C(F)(F)F)cc4c(N5CC(CO)C5)nc(OCC56CCCN5CCC6)nc4c3F)ccc(F)c2s1 [Compound 57] | 1000 to 10000 |  | > 10000 | 1000 to 10000 | 1000 to 10000 |
| N#Cc1c(N)sc2c(F)ccc(-c3c(C(F)(F)F)cc4c(N5CC6(CC(O)C6)C5)nc(OC[C@@]56CCCN5C[C@H](F)C6)nc4c3F)c12 [Compound 58] |  | 100 to 1000 | 100 to 1000 | 100 to 1000 | 100 to 1000 |
| CO[C@@H]1C[C@@H](COc2nc(N(C)[C@H]3C[C@@H](O)C3)c3cc(C(F)(F)F)c(-c4ccc(F)c5sc(N)nc45)c(F)c3n2)N(C)C1 (atropisomer, axis not shown) [Compound 17] |  |  | > 10000 | > 10000 | 1000 to 10000 |
| CN1C[C@H](F)C[C@H]1COc1nc(N(C)[C@H]2C[C@@H](O)C2)c2cc(C(F)(F)F)c(-c3ccc(F)c4sc(N)nc34)c(F)c2n1 (atropisomer, axis not shown) [Compound 12] |  |  | > 10000 | > 10000 | 1000 to 10000 |
| CN(c1nc(OCC23CCCN2CCC3)nc2c(F)c(-c3ccc(F)c4sc(N)nc34)c(-c3ccoc3)cc12)[C@H]1C[C@@H](O)C1 [Compound 6] |  |  | > 10000 | 1000 to 10000 | 1000 to 10000 |
| CN(c1nc(OC[C@@]23CCCN2C[C@H](F)C3)nc2c(F)c(-c3ccc(F)c4sc(N)c(C#N)c34)c(C(F)(F)F)cc12)[C@]1(CC#N)C[C@H](O)C1 (atropisomer, axis not shown) [Compound 249] | 100 to 1000 |  | 1000 to 10000 | 100 to 1000 | 100 to 1000 |
| Nc1nc2c(-c3c(C(F)(F)F)cc4c(N5CCC(CO)C5)nc(OCC56CCCN5CCC6)nc4c3F)ccc(F)c2s1 (centres unmarked) [Compound 56] | > 10000 |  | > 10000 | 1000 to 10000 | 1000 to 10000 |
| CN(c1nc(OC[C@@]23CCCN2C[C@H](F)C3)nc2c(F)c(-c3ccc(F)c4sc(N)c(C#N)c34)c(C(F)(F)F)cc12)[C@H]1C[C@@H](F)C1 (atropisomer, axis not shown) [Compound 160] | 100 to 1000 |  | 1000 to 10000 | 100 to 1000 | 100 to 1000 |
| CN(c1nc(OCC2(CN3CCOCC3)CC2)nc2c(F)c(-c3ccc(F)c4sc(N)c(C#N)c34)c(C(F)(F)F)cc12)[C@H]1C[C@@H](O)C1 (atropisomer, axis not shown) [Compound 122] | 100 to 1000 |  | 100 to 1000 | 100 to 1000 | 100 to 1000 |

Further lines, results first:

| IC50 [1] [nM] | IC50 (GP2d cells (KRAS G12D)) [nM] | IC50 [2] [nM] | IC50 [3] [nM] | IC50 [4] [nM] | Structure (SMILES) |
| --- | --- | --- | --- | --- | --- |
| > 10000 |  | > 10000 | > 10000 | > 10000 | CN(c1nc(OCC23CCCN2CCC3)nc2c(F)c(-c3ccc(F)c4sc(N)nc34)c(C(F)(F)F)cc12)C1CC(O)C12CCCC2 (single isomer, unassigned) [Compound 10] |
| > 10000 |  | > 10000 | 1000 to 10000 | 1000 to 10000 | CN(c1nc(OCC23CCCN2CCC3)nc2c(F)c(-c3ccc(F)c4sc(N)nc34)c(C(F)(F)F)cc12)C1CC(CO)C1 (centres unmarked) [Compound 4] |
| 1000 to 10000 |  | > 10000 | 1000 to 10000 | > 10000 | Nc1nc2c(-c3c(C(F)(F)F)cc4c(N5CCCC(O)C5)nc(OCC56CCCN5CCC6)nc4c3F)ccc(F)c2s1 (centres unmarked) [Compound 53] |
| > 10000 |  | > 10000 | 1000 to 10000 | 1000 to 10000 | Nc1nc2c(-c3c(C(F)(F)F)cc4c(N5CCC(O)C5)nc(OCC56CCCN5CCC6)nc4c3F)ccc(F)c2s1 (centres unmarked) [Compound 55] |
| 1000 to 10000 |  | 1000 to 10000 | 1000 to 10000 | 1000 to 10000 | Nc1nc2c(-c3c(C(F)(F)F)cc4c(N[C@H]5CC[C@@H](O)CC5)nc(OCC56CCCN5CCC6)nc4c3F)ccc(F)c2s1 [Compound 64] |
| 1000 to 10000 |  | 100 to 1000 | 100 to 1000 | 100 to 1000 | CN(c1nc(OC[C@@]23CCCN2C[C@H](F)C3)nc2c(F)c(-c3ccc(F)c4sc(N)nc34)c(C(F)(F)F)cc12)[C@H]1C[C@@H](O)C1 (atropisomer, axis not shown) [Compound 8] |
|  |  | > 10000 | 1000 to 10000 | 1000 to 10000 | Nc1nc2c(-c3c(C(F)(F)F)cc4c(N[C@H]5CCC[C@@H](O)C5)nc(OCC56CCCN5CCC6)nc4c3F)ccc(F)c2s1 (atropisomer, axis not shown) [Compound 67] |
|  |  | 1000 to 10000 | 100 to 1000 | 100 to 1000 | CO[C@H]1CN2CCC[C@@]2(COc2nc(N(C)[C@H]3C[C@@H](O)C3)c3cc(C(F)(F)F)c(-c4ccc(F)c5sc(N)nc45)c(F)c3n2)C1 (atropisomer, axis not shown) [Compound 13] |
|  |  | > 10000 | 1000 to 10000 | 1000 to 10000 | Nc1nc2c(-c3c(C(F)(F)F)cc4c(N[C@H]5CC[C@H](O)C5)nc(OCC56CCCN5CCC6)nc4c3F)ccc(F)c2s1 (atropisomer, axis not shown) [Compound 61] |
| 1000 to 10000 |  | > 10000 | 1000 to 10000 | 1000 to 10000 | CN(c1nc(OCC23CCCN2CCC3)nc2c(F)c(-c3ccc(F)c4sc(N)nc34)c(C(F)(F)F)cc12)[C@@H]1CC[C@H](O)C1 (atropisomer, axis not shown) [Compound 62] |
